Reference: patent US12122776B2, “Tetracyclic compounds and uses thereof” (Gilead Sciences, Inc., priority 2020, dated 2024)
Where two headings read alike, the source gives them in different places.

Columns and labels:
Format in all cases: cell-based
HIV-1 (IIIB) = test: Antiviral assay in MT-4 cells; conditions: Human immunodeficiency virus 1, MT4, 120 h; replication of HIV-1 (IIIB) in MT-4 cells, 5 days incubation, Cell Titer Glo
Description: Example 24: HIV MT-4 Antiviral and Cytotoxicity Assay
Antiviral Assay in MT-4 Cells
Compounds were tested in a high-throughput 384-well assay format for their ability to inhibit the replication of HIV-1 (IIIB) in MT-4 cells. Compounds were serially diluted (1:3) in DMSO on 384-well polypropylene plates and further diluted 200-fold into complete RPMI media (10% FBS, 1% P/S) using the Biotek Micro Flow and Labcyte ECHO acoustic dispenser. Each plate contained up to 8 test compounds, with negative (No Drug Control) and 5 μM AZT positive controls. MT-4 cells were pre-infected with 10 μL of either RPMI (mock-infected) or a fresh 1:250 dilution of HIV-1 IIIB concentrated virus stock. Infected and uninfected MT-4 cells were further diluted in complete RPMI media and added to each plate using a Micro Flow dispenser. After 5 days incubation in a humidified and temperature controlled incubator (37° C.), Cell Titer Glo (Promega) was added to the assay plates and chemiluminescence read using an Envision plate-reader. EC50 values were defined as the compound concentration that causes a 50% decrease in luminescence signal, and were calculated using a sigmoidal dose-response model to generate curve fits.

[1] = Cytotoxicity assay in MT-4 cells; conditions: human; uninfected MT-4 cells, 5 days incubation, Cell Titer Glo
Description: Cytotoxicity Assay in MT-4 Cells Assays were performed as above except uninfected MT-4 cells were added to each well containing test compound. In addition, 10 μM puromycin was added to the last column of each assay plate to assess a base level of cytotoxicity.

pLai RLuc reporter virus = test: HIV MT-4 serum shift antiviral reporter assay; conditions: Human immunodeficiency virus 1, MT4, 72 h
Description: Example 25: HIV MT-4 Serum Shift Antiviral Reporter Assay
To quantify the amount of protein binding to human serum, compounds were serially diluted (1:3) in DMSO and acoustically transferred onto 384-well assay plates via a Labcyte ECHO robot. Each plate contained up to 8 test compounds, including negative and positive controls, (DMSO, 5 μM AZT respectively). Assay plates were prepared in duplicate, and tested in either CCM (cell culture media) or HS/CCM (human serum/cell culture media). MT-4 cells were first pre-infected with pLai RLuc reporter virus for 2 h at 37° C., then further diluted in either CCM (RPMI media, 10% FBS, 1% P/S) or HS/CCM (RPMI media, 10% FBS, 50% HS, 1% P/S), and subsequently added to each plate using a Biotek Micro Flow dispenser. After a 72-h incubation in a humidified and temperature controlled incubator (37° C.), Renilla Glo (Promega) was added to all assay plates and chemiluminescence read using an Envision plate-reader. EC50 values were defined as the compound concentration that causes a 50% decrease in luminescence signal, and were calculated using a sigmoidal dose-response model to generate curve fits. To determine the amount of protein binding, EC50 fold shifts (or EC50 shifts) were calculated by dividing EC50 (HS/CCM)/EC50 (CCM).

[2] = read-out: Antiviral Serum Shift RLuc 50% HS
[3] = read-out: Antiviral Serum Shift RLuc CCM

Row | SMILES | EC50 (HIV-1 (IIIB)) [nM] | CC50 at 5 days [1] [nM] | EC50 (pLai RLuc reporter virus; [2]) [nM] | EC50 (pLai RLuc reporter virus; [3]) [nM]
1 | O=C(NCc1c(F)cc(F)cc1F)c1c2n3c(c(O)c1=O)C(=O)N1CCCC[C@]3(C[C@@H]2F)C1 (single isomer, unassigned) [Compound 8-1] | 0.86 | 7380 | 25.4 | 0.429
2 | O=C(NCc1c(F)cc(F)cc1F)c1c2n3c(c(O)c1=O)C(=O)N1CCCC[C@]3(C[C@H]2O)C1 (single isomer, unassigned) [Compound 9-1] | 3.06 | 8080 | 200 | 0.685
3 | O=C(NCc1c(F)cc(F)cc1F)c1c2n3c(c(O)c1=O)C(=O)N1CCCC[C@@]3(C[C@H]2O)C1 (single isomer, unassigned) [Compound 9-2] | 1.23 | 5170 | 34.1 | 0.347
4 | O=C(NCc1c(F)cc(F)cc1F)c1c2n3c(c(O)c1=O)C(=O)N1CCCC[C@]3(C[C@@H]2O)C1 (single isomer, unassigned) [Compound 9-3] | 1.06 | 6310 | 28.5 | 0.384
5 | O=C(NCc1c(F)cc(F)cc1F)c1c2n3c(c(O)c1=O)C(=O)N1CCCC[C@@]3(C[C@@H]2O)C1 (single isomer, unassigned) [Compound 9-4] | 0.703 | 6400 | 5.19 | 0.388
6 | O=C(NCc1ccc(F)cc1F)c1c2n3c(c(O)c1=O)C(=O)N1CCCC[C@]3(C[C@H]2O)C1 (single isomer, unassigned) [Compound 10-1] | 4.98 | 9560 | 121 | 0.715
7 | O=C(NCc1ccc(F)cc1F)c1c2n3c(c(O)c1=O)C(=O)N1CCCC[C@@]3(C[C@H]2O)C1 (single isomer, unassigned) [Compound 10-2] | 1.05 | 4120 | 21.1 | 0.417
8 | O=C(NCc1ccc(F)cc1F)c1c2n3c(c(O)c1=O)C(=O)N1CCCC[C@]3(C[C@@H]2O)C1 (single isomer, unassigned) [Compound 10-3] | 3.31 | 9470 | 25.6 | 0.632
9 | O=C(NCc1ccc(F)cc1F)c1c2n3c(c(O)c1=O)C(=O)N1CCCC[C@@]3(C[C@@H]2O)C1 (single isomer, unassigned) [Compound 10-4] | 2.47 | 4610 | 3.3 | 0.405
10 | O=C(NCc1c(F)cc(F)cc1F)c1c2n3c(c(O)c1=O)C(=O)N1CCCC[C@@]3(C1)[C@H](O)[C@H]2O (single isomer, unassigned) [Compound 11-1] | 4 | 50000 | 3.91 | 1.16
11 | O=C(NCc1c(F)cc(F)cc1F)c1c2n3c(c(O)c1=O)C(=O)N1CCCC[C@@]3(C1)[C@@H](O)[C@@H]2O (single isomer, unassigned) [Compound 11-3] | 5.28 | 50000 | 7.57 | 4.08
12 | O=C(NCc1c(F)cc(F)cc1F)c1c2n3c(c(O)c1=O)C(=O)N1CCCC[C@]3(C1)[C@@H](O)[C@@H]2O (single isomer, unassigned) [Compound 11-4] | 4.02 | 50000 | 20.5 | 1.02
13 | CO[C@@H]1C[C@@]23CCCCN(C2)C(=O)c2c(O)c(=O)c(C(=O)NCc4c(F)cc(F)cc4F)c1n23 (single isomer, unassigned) [Compound 12-1] | 1.54 | 9690 | 16.9 | 0.77
14 | CO[C@H]1C[C@]23CCCCN(C2)C(=O)c2c(O)c(=O)c(C(=O)NCc4c(F)cc(F)cc4F)c1n23 (single isomer, unassigned) [Compound 12-2] | 3.26 | 11100 | 98.4 | 1.14
15 | O=C(NCc1ccc(F)c(Cl)c1F)c1c2n3c(c(O)c1=O)C(=O)N1CCCC[C@@]3(C[C@H]2O)C1 (single isomer, unassigned) [Compound 14-1] | 1.1 | 2310 | 26 | 0.22
16 | O=C(NCc1ccc(F)c(Cl)c1F)c1c2n3c(c(O)c1=O)C(=O)N1CCCC[C@@]3(C[C@@H]2O)C1 (single isomer, unassigned) [Compound 14-2] | 0.73 | 2110 | 11 | 0.41
17 | C[C@]1(O)C[C@@]23CCCCN(C2)C(=O)c2c(O)c(=O)c(C(=O)NCc4c(F)cc(F)cc4F)c1n23 (single isomer, unassigned) [Compound 15] | 1.2 | 3730 | 51 | 0.29
18 | C[C@H]1C=CC[C@]23C[C@@H](O)c4c(C(=O)NCc5c(F)cc(F)cc5F)c(=O)c(O)c(n42)C(=O)N1C3 (single isomer, unassigned) [Compound 21-1] | 1.04 | 4840 | 27 | 0.26
19 | C[C@H]1C=CC[C@]23C[C@H](O)c4c(C(=O)NCc5c(F)cc(F)cc5F)c(=O)c(O)c(n42)C(=O)N1C3 (single isomer, unassigned) [Compound 21-2] | 0.8 | 5370 | 12 | 0.27
20 | O=C(NCc1c(F)cc(F)cc1F)c1c2n3c(c(O)c1=O)C(=O)N1CCCC[C@@]3(CC2)C1 [Compound 1, (6aR)-11-hydroxy-1,10-dioxo-N-(2,4,6-trifluorobenzyl)-1,3,4,5,6,7,8,10-octahydro-2,6a-methano[1,4]diazonino[9,1,2-cd]indolizine-9-carboxamide] | 1.35 | 4300 | 8.71 | 0.299
21 | O=C(NCc1c(F)cc(F)cc1F)c1c2n3c(c(O)c1=O)C(=O)N1CCCC[C@]3(CC2)C1 [Compound 2, (6aS)-11-hydroxy-1,10-dioxo-N-(2,4,6-trifluorobenzyl)-1,3,4,5,6,7,8,10-octahydro-2,6a-methano[1,4]diazonino[9,1,2-cd]indolizine-9-carboxamide] | 2.26 | 6160 | 20.8 | 0.351
22 | O=C(NCc1ccc(F)cc1F)c1c2n3c(c(O)c1=O)C(=O)N1CCCC[C@@]3(CC2)C1 [Compound 3, (6aR)—N-(2,4-difluorobenzyl)-11-hydroxy-1,10-dioxo-1,3,4,5,6,7,8,10-octahydro-2,6a-methano[1,4]diazonino[9,1,2-cd]indolizine-9-carboxamide] | 1.78 | 4940 | 3.11 | 0.175
23 | O=C(NCc1ccc(F)cc1F)c1c2n3c(c(O)c1=O)C(=O)N1CCCC[C@]3(CC2)C1 [Compound 4, (6aS)—N-(2,4-difluorobenzyl)-11-hydroxy-1,10-dioxo-1,3,4,5,6,7,8,10-octahydro-2,6a-methano[1,4]diazonino[9,1,2-cd]indolizine-9-carboxamide] | 3.09 | 5140 | 32.3 | 0.72
24 | O=C(NCc1cccc(Cl)c1F)c1c2n3c(c(O)c1=O)C(=O)N1CCCC[C@@]3(CC2)C1 [Compound 5, (6aR)—N-(3-chloro-2-fluorobenzyl)-11-hydroxy-1,10-dioxo-1,3,4,5,6,7,8,10-octahydro-2,6a-methano[1,4]diazonino[9,1,2-cd]indolizine-9-carboxamide] | 2.24 | 4040 | 6.04 | 0.278
25 | C[C@H]1CC[C@H](O)[C@]23CCc4c(C(=O)NCc5c(F)cc(F)cc5F)c(=O)c(O)c(n42)C(=O)N1C3 [Compound 23-1, (3S,6S,6aR)-6,11-dihydroxy-3-methyl-1,10-dioxo-N-(2,4,6-trifluorobenzyl)-1,3,4,5,6,7,8,10-octahydro-2,6a-methano[1,4]diazonino[9,1,2-cd]indolizine-9-carboxamide] | 5.7 | 26600 | – | –
